Laboratory results reported in patent publication US8124793B2, “Derivatives of ethylene methanedisulfonate as cancer chemotherapeutic agents” (priority 2007, dated 2012).

How the values were obtained:
Assay type in all cases: cell-based
[1] = test system: human cancer cells; experiment: NCI screen summary over the cancers tested (negative growth of human cancer cells); conditions: 10^−4 M conc.; cancers with negative growth / cancers tested
Description: (§1) In the NCI screening process, each compound was tested and described by a minimum of 60 data points. The test data include, but are not limited to the type of cancer, the molar concentration used in the screen, and the percent growth of the cancer. In some cases, NMR and elemental analysis were used for structural assignment.
The derivatives in the tables are grouped using the same category as in the tables 1-6.

[2] = test system: PC-3; experiment: NCI screen, growth of human tumor cells: Prostate Cancer PC-3; conditions: PC-3 (Prostate Cancer), 10^−4 molar
Description: as §1

[3] = test system: HCT-116; experiment: NCI screen, growth of human tumor cells: Colon Cancer HCT-116; conditions: HCT-116 (Colon Cancer), 10^−4 molar
Description: as §1

[4] = test system: LOXIMVI; experiment: NCI screen, growth of human tumor cells: Melanoma LOXIMVI; conditions: LOXIMVI (Melanoma), 10^−4 molar
Description: as §1

[5] = test system: K562; experiment: NCI screen, growth of human tumor cells: Leukemia K562; conditions: K562 (Leukemia), 10^−4 molar
Description: as §1

[6] = test system: MALME-3M; experiment: NCI screen, growth of human tumor cells: Melanoma MALME-3M; conditions: MALME-3M, 10^−4 molar
Description: as §1

[7] = test system: SNB-19; experiment: NCI screen, growth of human tumor cells: CNS Cancer SNB-19
Description: as §1

[8] = test system: KD488; experiment: NCI screen, growth of human tumor cells: Lymphoma KD488

O=S1(=O)OCCOS(=O)(=O)[C-]1S(=O)(=O)c1cccc2ccccc12.[Na+] [NSC 679044]
Percentage of cancers showing negative growth cancers tested [1]: 10^−4 M conc. = 1/4 = 25% | percent of growth of human tumor cells [2]: 23% | percent of growth of human tumor cells [3]: −52% | percent of growth of human tumor cells [4]: 23% | percent of growth of human tumor cells [5]: 15%

COC(=O)c1cc(/C=C/C(=O)Cc2ccccc2)cn1S(=O)(=O)c1ccccc1 [compound 679534]
% Growth [6]: −88%

O=S(=O)([O-])OCCCC1S(=O)(=O)OCCOS1(=O)=O.[Na+] [NSC 674994, butane-1-[hydroxyhydrogensulfate]-4,4-[ethylenedisulfonate]]
Percentage of cancers showing negative growth cancers tested [1]: 10^−4 M conc. = 0/1 = 0% | % Growth ([7]; SNB-19, 10^−4 molar): 36% | % Growth ([7]; SNB-19, 10^−5 molar): 45% | % Growth ([7]; SNB-19, 10^−6 molar): 47% | % Growth ([7]; SNB-19, 10^−7 molar): 73% | % Growth ([7]; SNB-19, 10^−8 molar): 67%

O=C(c1cccc2ccccc12)C1(Br)S(=O)(=O)OCCOS1(=O)=O [compound 679048]
% Growth ([8]; KD488, 10^−4 molar): 54% | % Growth ([8]; KD488, 10^−5 molar): 51% | % Growth ([8]; KD488, 10^−6 molar): 34% | % Growth ([8]; KD488, 10^−7 molar): 100% | % Growth ([8]; KD488, 10^−8 molar): 52%
